Values after ≈ are worked out from the molar mass of the structure shown.
The compounds below were run on Escherichia coli (assay: Antibacterial activity against Escherichia coli TOP10 expressing AmpC-A by agar dilution method in presence of 4 mg/liter Tazobactam).
Type: functional
In the case of `CCN1CCN(C(=O)N[C@@H](C(=O)N[C@@H]2C(=O)N3[C@@H]2SC(C)(C)[C@@H]3C(=O)O)c2ccccc2)C(=O)C1=O` [PIPERACILLIN], the MIC is reported as 4 µg/mL.

The compounds below were run on Escherichia coli (assay: Antibacterial activity against Escherichia coli TOP10 expressing AmpC-A by agar dilution method).
Type: functional
For `CC1(C)S[C@@H]2[C@H](NC(=O)[C@H](N)c3ccc(O)cc3)C(=O)N2[C@H]1C(=O)O` [AMOXICILLIN], the MIC was greater than 512 µg/mL.
Compound `C[C@H]1[C@H](NC(=O)/C(=N\OC(C)(C)C(=O)O)c2csc(N)n2)C(=O)N1S(=O)(=O)O` [AZTREONAM] has an MIC of 0.125 µg/mL (≈ 0.287 µM).
`CO/N=C(\C(=O)N[C@@H]1C(=O)N2C(C(=O)[O-])=C(C[N+]3(C)CCCC3)CS[C@H]12)c1csc(N)n1` [CEFEPIME] showed an MIC of 0.06 µg/mL (≈ 0.125 µM).
Work on `CO/N=C(\C(=O)N[C@@H]1C(=O)N2C(C(=O)O)=C(COC(C)=O)CS[C@H]12)c1csc(N)n1` [CEFOTAXIME] yielded an MIC of 1 µg/mL (≈ 2.2 µM).
`CCN1CCN(C(=O)N[C@@H](C(=O)N[C@@H]2C(=O)N3[C@@H]2SC(C)(C)[C@@H]3C(=O)O)c2ccccc2)C(=O)C1=O` [PIPERACILLIN] was tested, and the MIC was 4 µg/mL (≈ 7.73 µM).

The compounds below were run on Escherichia coli (assay: Antibacterial activity against Escherichia coli TOP10 expressing AmpC-A by agar dilution method in presence of 2 mg/liter clavulanic acid).
Type: functional
With `CC1(C)S[C@@H]2[C@H](NC(=O)[C@H](N)c3ccc(O)cc3)C(=O)N2[C@H]1C(=O)O` [AMOXICILLIN] the MIC was greater than 512 µg/mL.

These compounds were tested on Escherichia coli (assay: Antibacterial activity against Escherichia coli TOP10 expressing AmpC-A S287N mutant protein by agar dilution method).
Type: functional
In the case of `C[C@H]1[C@H](NC(=O)/C(=N\OC(C)(C)C(=O)O)c2csc(N)n2)C(=O)N1S(=O)(=O)O` [AZTREONAM], the MIC is reported as 16 µg/mL (≈ 36.7 µM).
Work on `CO/N=C(\C(=O)N[C@@H]1C(=O)N2C(C(=O)[O-])=C(C[N+]3(C)CCCC3)CS[C@H]12)c1csc(N)n1` [CEFEPIME] yielded an MIC of 16 µg/mL (≈ 33.3 µM).
For `CO/N=C(\C(=O)N[C@@H]1C(=O)N2C(C(=O)O)=C(COC(C)=O)CS[C@H]12)c1csc(N)n1` [CEFOTAXIME], the MIC was 16 µg/mL (≈ 35.1 µM).
Compound `CCN1CCN(C(=O)N[C@@H](C(=O)N[C@@H]2C(=O)N3[C@@H]2SC(C)(C)[C@@H]3C(=O)O)c2ccccc2)C(=O)C1=O` [PIPERACILLIN] has an MIC of 8 µg/mL (≈ 15.5 µM).

These compounds were tested on Escherichia coli (assay: Antibacterial activity against Escherichia coli TOP10 expressing AmpC-A S287N mutant protein by agar dilution method in presence of 2 mg/liter clavulanic acid).
Type: functional
`CC1(C)S[C@@H]2[C@H](NC(=O)[C@H](N)c3ccc(O)cc3)C(=O)N2[C@H]1C(=O)O` [AMOXICILLIN] showed an MIC of 512 µg/mL.

Each compound was assayed on Escherichia coli (assay: Antibacterial activity against Escherichia coli TOP10 expressing AmpC-A S287N mutant protein by agar dilution method in presence of 4 mg/liter Tazobactam).
Type: functional
For `CCN1CCN(C(=O)N[C@@H](C(=O)N[C@@H]2C(=O)N3[C@@H]2SC(C)(C)[C@@H]3C(=O)O)c2ccccc2)C(=O)C1=O` [PIPERACILLIN], the MIC was 8 µg/mL.

The compounds below were run on Escherichia coli (assay: Antibacterial activity against Escherichia coli TOP10 expressing AmpC-B2 by agar dilution method).
Type: functional
Work on `CC1(C)S[C@@H]2[C@H](NC(=O)[C@H](N)c3ccc(O)cc3)C(=O)N2[C@H]1C(=O)O` [AMOXICILLIN] yielded an MIC greater than 512 µg/mL.
`C[C@H]1[C@H](NC(=O)/C(=N\OC(C)(C)C(=O)O)c2csc(N)n2)C(=O)N1S(=O)(=O)O` [AZTREONAM] gave an MIC of 0.06 µg/mL (≈ 0.138 µM).
In the case of `CO/N=C(\C(=O)N[C@@H]1C(=O)N2C(C(=O)[O-])=C(C[N+]3(C)CCCC3)CS[C@H]12)c1csc(N)n1` [CEFEPIME], the MIC is reported as 0.06 µg/mL (≈ 0.125 µM).
`CO/N=C(\C(=O)N[C@@H]1C(=O)N2C(C(=O)O)=C(COC(C)=O)CS[C@H]12)c1csc(N)n1` [CEFOTAXIME] gave an MIC of 0.5 µg/mL (≈ 1.1 µM).
Compound `CCN1CCN(C(=O)N[C@@H](C(=O)N[C@@H]2C(=O)N3[C@@H]2SC(C)(C)[C@@H]3C(=O)O)c2ccccc2)C(=O)C1=O` [PIPERACILLIN] has an MIC of 2 µg/mL (≈ 3.86 µM).

These compounds were tested on Escherichia coli (assay: Antibacterial activity against Escherichia coli TOP10 expressing AmpC-B2 by agar dilution method in presence of 2 mg/liter clavulanic acid).
Type: functional
`CC1(C)S[C@@H]2[C@H](NC(=O)[C@H](N)c3ccc(O)cc3)C(=O)N2[C@H]1C(=O)O` [AMOXICILLIN] gave an MIC of 256 µg/mL.

The compounds below were run on Escherichia coli (assay: Antibacterial activity against Escherichia coli TOP10 expressing AmpC-B2 by agar dilution method in presence of 4 mg/liter Tazobactam).
Type: functional
`CCN1CCN(C(=O)N[C@@H](C(=O)N[C@@H]2C(=O)N3[C@@H]2SC(C)(C)[C@@H]3C(=O)O)c2ccccc2)C(=O)C1=O` [PIPERACILLIN] showed an MIC of 4 µg/mL.

What follows are compounds tested on Escherichia coli (assay: Antibacterial activity against Escherichia coli TOP10 expressing AmpC-B2 S287N mutant protein by agar dilution method).
Type: functional
`CO/N=C(\C(=O)N[C@@H]1C(=O)N2C(C(=O)O)=C(COC(C)=O)CS[C@H]12)c1csc(N)n1` [CEFOTAXIME] was tested, and the MIC was 1 µg/mL (≈ 2.2 µM).
With `CCN1CCN(C(=O)N[C@@H](C(=O)N[C@@H]2C(=O)N3[C@@H]2SC(C)(C)[C@@H]3C(=O)O)c2ccccc2)C(=O)C1=O` [PIPERACILLIN] the MIC was 4 µg/mL (≈ 7.73 µM).

The compounds below were run on Escherichia coli (assay: Antibacterial activity against Escherichia coli TOP10 expressing AmpC-B2 S287N mutant protein by agar dilution method in presence of 2 mg/liter clavulanic acid).
Type: functional
In the case of `CC1(C)S[C@@H]2[C@H](NC(=O)[C@H](N)c3ccc(O)cc3)C(=O)N2[C@H]1C(=O)O` [AMOXICILLIN], the MIC is reported as 512 µg/mL.

The compounds below were run on Escherichia coli (assay: Antibacterial activity against Escherichia coli TOP10 expressing AmpC-B2 S287N mutant protein by agar dilution method in presence of 4 mg/liter Tazobactam).
Type: functional
`CCN1CCN(C(=O)N[C@@H](C(=O)N[C@@H]2C(=O)N3[C@@H]2SC(C)(C)[C@@H]3C(=O)O)c2ccccc2)C(=O)C1=O` [PIPERACILLIN] showed an MIC of 4 µg/mL.

What follows are compounds tested on Escherichia coli (assay: Antibacterial activity against Escherichia coli TOP10 by agar dilution method).
Type: functional
`CC1(C)S[C@@H]2[C@H](NC(=O)[C@H](N)c3ccc(O)cc3)C(=O)N2[C@H]1C(=O)O` [AMOXICILLIN] was tested, and the MIC was 2 µg/mL (≈ 5.47 µM).
In the case of `CO/N=C(\C(=O)N[C@@H]1C(=O)N2C(C(=O)O)=C(COC(C)=O)CS[C@H]12)c1csc(N)n1` [CEFOTAXIME], the MIC is reported as 0.06 µg/mL (≈ 0.132 µM).
`CCN1CCN(C(=O)N[C@@H](C(=O)N[C@@H]2C(=O)N3[C@@H]2SC(C)(C)[C@@H]3C(=O)O)c2ccccc2)C(=O)C1=O` [PIPERACILLIN] showed an MIC of 1 µg/mL (≈ 1.93 µM).

What follows are compounds tested on Escherichia coli (assay: Antibacterial activity against Escherichia coli TOP10 by agar dilution method in presence of 2 mg/liter clavulanic acid).
Type: functional
`CC1(C)S[C@@H]2[C@H](NC(=O)[C@H](N)c3ccc(O)cc3)C(=O)N2[C@H]1C(=O)O` [AMOXICILLIN] showed an MIC of 2 µg/mL.

Each compound was assayed on Escherichia coli (assay: Antibacterial activity against Escherichia coli TOP10 by agar dilution method in presence of 4 mg/liter Tazobactam).
Type: functional
Work on `CCN1CCN(C(=O)N[C@@H](C(=O)N[C@@H]2C(=O)N3[C@@H]2SC(C)(C)[C@@H]3C(=O)O)c2ccccc2)C(=O)C1=O` [PIPERACILLIN] yielded an MIC of 1 µg/mL.

Each compound was assayed on Escherichia coli (assay: Activity of Escherichia coli TOP10 beta-lactamase AmpC-B2).
`CO/N=C(\C(=O)N[C@@H]1C(=O)N2C(C(=O)O)=C(COC(C)=O)CS[C@H]12)c1csc(N)n1` [CEFOTAXIME] showed a Km of 45 µM and a kcat of 0.1 s⁻¹.

The compounds below were run on Escherichia coli (assay: Activity of Escherichia coli TOP10 beta-lactamase AmpC-B2 S287N mutant).
With `CO/N=C(\C(=O)N[C@@H]1C(=O)N2C(C(=O)[O-])=C(C[N+]3(C)CCCC3)CS[C@H]12)c1csc(N)n1` [CEFEPIME] the kcat was 0.25 s⁻¹.
Compound `CO/N=C(\C(=O)N[C@@H]1C(=O)N2C(C(=O)O)=C(COC(C)=O)CS[C@H]12)c1csc(N)n1` [CEFOTAXIME] has a Km of 1000 µM and a kcat of 0.045 s⁻¹.

What follows are compounds tested on Escherichia coli (assay: Activity of Escherichia coli TOP10 beta-lactamase AmpC-A).
`CO/N=C(\C(=O)N[C@@H]1C(=O)N2C(C(=O)O)=C(COC(C)=O)CS[C@H]12)c1csc(N)n1` [CEFOTAXIME] showed a Km of 25 µM and a kcat of 0.2 s⁻¹.

Each compound was assayed on Escherichia coli (assay: Activity of Escherichia coli TOP10 beta-lactamase AmpC-A S287N mutant).
`CO/N=C(\C(=O)N[C@@H]1C(=O)N2C(C(=O)[O-])=C(C[N+]3(C)CCCC3)CS[C@H]12)c1csc(N)n1` [CEFEPIME] showed a kcat of 1.35 s⁻¹.
`CO/N=C(\C(=O)N[C@@H]1C(=O)N2C(C(=O)O)=C(COC(C)=O)CS[C@H]12)c1csc(N)n1` [CEFOTAXIME] gave a Km of 100 µM and a kcat of 0.08 s⁻¹.

Source: ChEMBL document CHEMBL1275582, “Role of the Ser-287-Asn replacement in the hydrolysis spectrum extension of AmpC beta-lactamases in Escherichia coli” (2009)
